Measurements: US20150079158A1, “METHOD TO STABILIZE LIPOSOME EMULSIONS FOR BIOCIDAL DELIVERY” (General Electric Company, priority 2012, published 2015)

Assay: HPLC analysis of active degradation after accelerated storage
Format: physicochemical
Protocol: The degradation of the biocide-containing liposome emulsion can be qualitatively observed by the formation of an insoluble precipitate. Quantitatively, high pressure liquid chromatography (HPLC) analysis was used to determine actives concentrations for samples stored under accelerated storage conditions. The samples that passed 90 days at 35° C. or 30 days at 50° C. were taken to ambient temperature and analyzed. The stability of these liposome emulsions was determined as follows.
HPLC analysis was executed for active degradation of 5-chloro-2-methyl-4-isothiazolin-3-one and 2-methyl-4-isothiazolin-3-one in the samples after 90 days at 35° C. or 30 days at 50° C.

SMILES: Cn1sccc1=O [2-methyl-4-isothiazolin-3-one]
- active degradation (HPLC): less than 10%
